# Assay results published in the supplement of paper PMC10307832.
# Tests used:
# Test in all cases: relative viability (nuclei count vs DMSO), 5 days (fraction); higher = more cells survive
# AZD8055 + Olaparib = compound: COc1ccc(-c2ccc3c(N4CCOC[C@@H]4C)nc(N4CCOC[C@@H]4C)nc3n2)cc1CO [AZD8055] + O=C(c1cc(Cc2n[nH]c(=O)c3ccccc23)ccc1F)N1CCN(C(=O)C2CC2)CC1 [Olaparib] (partner 8 µM)
# Outline: (§1)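 After 5 days of treatment, lung cancer cells in 1536-well plates were fixed and stained in a single step (final 0.05% Triton X-100, 1% formaldehyde, 1 ug/ml Hoechst) and their nuclei counted on 4× images. Treatment had been applied by pin tool the day after seeding as one drug alone or as a fixed anchor-drug dose with five library-drug doses (not always all listed) in √10 steps. Relative viability is the nuclei count of treated wells divided by that of vehicle wells, and values are medians of duplicate plates.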
# AZD8055 + Phenformin = compound: COc1ccc(-c2ccc3c(N4CCOC[C@@H]4C)nc(N4CCOC[C@@H]4C)nc3n2)cc1CO [AZD8055] + N=C(N)NC(=N)NCCc1ccccc1 [Phenformin] (partner 250 µM)
# Outline: as §1
# AZD8055 + Lapatinib = compound: COc1ccc(-c2ccc3c(N4CCOC[C@@H]4C)nc(N4CCOC[C@@H]4C)nc3n2)cc1CO [AZD8055] + CS(=O)(=O)CCNCc1ccc(-c2ccc3ncnc(Nc4ccc(OCc5cccc(F)c5)c(Cl)c4)c3c2)o1 [Lapatinib] (partner 2 µM)
# Outline: as §1
# AZD8055 + Trametinib = compound: COc1ccc(-c2ccc3c(N4CCOC[C@@H]4C)nc(N4CCOC[C@@H]4C)nc3n2)cc1CO [AZD8055] + CC(=O)Nc1cccc(-n2c(=O)n(C3CC3)c(=O)c3c(Nc4ccc(I)cc4F)n(C)c(=O)c(C)c32)c1 [Trametinib] (partner 0.02 µM)
# Outline: as §1
Cell Line,relative viability (AZD8055 + Olaparib; first compound 0.01 µM),relative viability (AZD8055 + Olaparib; first compound 0.03162 µM),relative viability (AZD8055 + Olaparib; first compound 0.1 µM),relative viability (AZD8055 + Olaparib; first compound 0.3162 µM),relative viability (AZD8055 + Olaparib; first compound 1 µM),relative viability (AZD8055 + Phenformin; first compound 0.01 µM),relative viability (AZD8055 + Phenformin; first compound 0.03162 µM),relative viability (AZD8055 + Phenformin; first compound 0.1 µM),relative viability (AZD8055 + Phenformin; first compound 0.3162 µM),relative viability (AZD8055 + Phenformin; first compound 1 µM),relative viability (AZD8055 + Lapatinib; first compound 0.01 µM),relative viability (AZD8055 + Lapatinib; first compound 0.03162 µM),relative viability (AZD8055 + Lapatinib; first compound 0.1 µM),relative viability (AZD8055 + Lapatinib; first compound 0.3162 µM),relative viability (AZD8055 + Lapatinib; first compound 1 µM),relative viability (AZD8055 + Trametinib; first compound 0.01 µM),relative viability (AZD8055 + Trametinib; first compound 0.03162 µM),relative viability (AZD8055 + Trametinib; first compound 0.1 µM),relative viability (AZD8055 + Trametinib; first compound 0.3162 µM),relative viability (AZD8055 + Trametinib; first compound 1 µM)
NCI-H661,0.785,0.802,0.691,0.447,0.378,0.245,0.262,0.287,0.248,0.261,0.434,0.43,0.414,0.307,0.256,0.518,0.426,0.451,0.31,0.325
NCI-H1993,1.02,0.793,0.602,0.409,0.434,0.509,0.469,0.529,0.49,0.576,0.685,0.766,0.75,0.668,0.672,0.493,0.443,0.517,0.449,0.413
NCI-H1437,0.696,0.658,0.601,0.457,0.311,0.315,0.299,0.301,0.206,0.203,1.03,0.76,0.549,0.221,0.183,0.524,0.527,0.381,0.247,0.207
UMC-11,0.376,0.323,0.335,0.223,0.269,0.353,0.311,0.311,0.264,0.213,0.832,0.573,0.578,0.276,0.282,0.77,0.489,0.453,0.319,0.253
201T,0.878,0.854,0.813,0.673,0.456,0.473,0.438,0.422,0.318,0.314,1.01,1.04,0.986,0.788,0.7,0.7,0.689,0.629,0.519,0.492
NCI-H358,0.563,0.594,0.543,0.202,0.12,0.362,0.387,0.294,0.151,0.121,0.444,0.41,0.394,0.254,0.246,0.144,0.144,0.116,0.106,0.116
NCI-H1650,0.985,0.865,0.726,0.417,0.472,0.534,0.518,0.383,0.288,0.266,0.767,0.731,0.71,0.452,0.44,0.724,0.544,0.502,0.394,0.261
LOU-NH91,1.03,0.913,0.816,0.633,0.607,0.678,0.711,0.532,0.49,0.455,0.68,0.679,0.56,0.484,0.548,0.765,0.74,0.64,0.564,0.587
HOP-62,0.756,0.501,0.45,0.5,0.184,0.717,0.628,0.585,0.462,0.294,1.14,0.908,0.962,0.369,0.316,0.423,0.338,0.27,0.195,0.194
NCI-H1915,0.257,0.262,0.289,0.238,0.204,0.373,0.348,0.356,0.364,0.302,1.1,0.876,1.01,0.655,0.522,0.286,0.254,0.259,0.174,0.146
NCI-H3122,0.775,0.697,0.689,0.338,0.283,0.444,0.425,0.428,0.233,0.204,1.09,1.14,1.04,0.79,0.589,0.227,0.195,0.175,0.119,0.0905
NCI-H1651,0.193,0.191,0.193,0.222,0.25,0.323,0.318,0.329,0.261,0.232,0.844,0.569,0.585,0.403,0.324,0.809,0.715,0.735,0.582,0.462
NCI-H838,0.687,0.597,0.351,0.259,0.29,0.553,0.362,0.354,0.233,0.218,1.04,0.656,0.352,0.237,0.336,0.499,0.335,0.279,0.19,0.201
NCI-H596,0.752,0.615,0.459,0.452,0.514,0.777,0.685,0.608,0.407,0.375,1,0.682,0.661,0.535,0.463,0.704,0.676,0.577,0.411,0.404
SK-LU-1,0.442,0.412,0.345,0.305,0.254,0.526,0.436,0.288,0.247,0.226,0.866,0.761,0.487,0.376,0.332,0.579,0.447,0.358,0.284,0.3
NCI-H650,0.484,0.38,0.357,0.217,0.175,0.473,0.378,0.429,0.305,0.302,0.838,0.73,0.58,0.341,0.319,1.13,1.09,0.888,0.469,0.353

Cell Line,relative viability (AZD8055 + Olaparib; first compound 0.01 µM),relative viability (AZD8055 + Olaparib; first compound 0.03162 µM),relative viability (AZD8055 + Olaparib; first compound 0.1 µM),relative viability (AZD8055 + Olaparib; first compound 0.3162 µM),relative viability (AZD8055 + Olaparib; first compound 1 µM),relative viability (AZD8055 + Phenformin; first compound 0.01 µM),relative viability (AZD8055 + Phenformin; first compound 0.03162 µM),relative viability (AZD8055 + Phenformin; first compound 0.1 µM),relative viability (AZD8055 + Phenformin; first compound 0.3162 µM),relative viability (AZD8055 + Phenformin; first compound 1 µM),relative viability (AZD8055 + Lapatinib; first compound 0.01 µM),relative viability (AZD8055 + Lapatinib; first compound 0.03162 µM),relative viability (AZD8055 + Lapatinib; first compound 0.1 µM),relative viability (AZD8055 + Lapatinib; first compound 0.3162 µM),relative viability (AZD8055 + Lapatinib; first compound 1 µM),relative viability (AZD8055 + Trametinib; first compound 0.01 µM),relative viability (AZD8055 + Trametinib; first compound 0.03162 µM),relative viability (AZD8055 + Trametinib; first compound 0.1 µM),relative viability (AZD8055 + Trametinib; first compound 0.3162 µM),relative viability (AZD8055 + Trametinib; first compound 1 µM)
SK-MES-1,0.748,0.484,0.328,0.208,0.262,0.658,0.645,0.608,0.311,0.216,0.444,0.387,0.371,0.274,0.318,0.462,0.543,0.354,0.313,0.303
NCI-H1792,0.503,0.379,0.0968,0.0717,0.108,0.193,0.193,0.0875,0.0907,0.109,1.02,0.838,0.808,0.15,0.131,0.511,0.273,0.227,0.0933,0.0673
NCI-H1355,0.694,0.622,0.553,0.269,0.266,0.442,0.396,0.344,0.286,0.28,0.866,0.78,0.703,0.257,0.274,0.379,0.321,0.29,0.211,0.211
SW 1573,0.555,0.417,0.325,0.17,0.16,0.324,0.218,0.193,0.163,0.14,1.25,0.829,1.04,0.519,0.27,0.559,0.518,0.379,0.193,0.15
NCI-H2347,0.57,0.491,0.502,0.328,0.395,0.381,0.283,0.338,0.178,0.205,0.89,0.825,0.823,0.498,0.408,0.282,0.299,0.277,0.233,0.233
LCLC-97TM1,0.413,0.308,0.216,0.105,0.0929,0.477,0.182,0.178,0.121,0.187,0.758,0.815,0.639,0.157,0.181,0.194,0.164,0.124,0.138,0.123
EMC-BAC-2,0.391,0.465,0.395,0.272,0.244,0.5,0.42,0.36,0.283,0.258,0.867,0.777,0.74,0.403,0.406,0.87,0.818,0.733,0.363,0.434
NCI-H1975,0.976,0.677,0.464,0.221,0.189,0.369,0.309,0.233,0.172,0.174,1.04,0.601,0.468,0.273,0.251,0.417,0.313,0.193,0.192,0.18
BEN,1.15,0.884,0.658,0.455,0.518,0.293,0.26,0.292,0.242,0.228,0.607,0.402,0.353,0.317,0.304,0.87,0.626,0.569,0.467,0.463
NCI-H23,0.248,0.213,0.279,0.166,0.184,0.785,0.778,0.713,0.465,0.403,1.15,0.804,0.792,0.369,0.35,0.277,0.314,0.33,0.227,0.22
NCI-H520,0.247,0.205,0.132,0.137,0.132,0.467,0.219,0.211,0.158,0.156,0.716,0.344,0.265,0.142,0.167,0.581,0.246,0.267,0.109,0.137
CAL-12T,0.679,0.654,0.491,0.277,0.226,0.567,0.626,0.479,0.23,0.2,0.67,0.601,0.369,0.37,0.343,0.33,0.308,0.227,0.186,0.196
EPLC-272H,0.627,0.589,0.333,0.281,0.245,0.326,0.214,0.216,0.198,0.212,0.735,0.75,0.549,0.471,0.459,0.278,0.257,0.227,0.189,0.131
NCI-H2405,0.904,0.851,0.772,0.359,0.35,0.399,0.368,0.341,0.302,0.275,1.03,0.955,0.858,0.395,0.292,0.555,0.494,0.43,0.282,0.27
HCC-15,0.776,0.697,0.643,0.47,0.35,0.547,0.459,0.425,0.286,0.232,0.834,0.877,0.886,0.474,0.333,0.373,0.337,0.271,0.167,0.186
PC-3 [JPC-3],1.19,1.26,1.13,0.798,0.61,0.464,0.479,0.47,0.464,0.456,0.392,0.393,0.333,0.322,0.302,0.749,0.757,0.565,0.462,0.445
